{"source": "patent US10563263B2", "about": "“Genetic polymorphisms associated with statin response and cardiovascular diseases, methods of detection and uses thereof” (CELERA CORPORATION, priority 2010, dated 2020)", "system": "CVD (CHD or stroke)", "test": "WOSCOPS: SNP by pravastatin treatment interaction, logistic regression (synergy index), CVD endpoint", "format": "in vivo, human", "settings": "for OR (synergy index), WOSCOPS, Prava vs Placebo: CVD endpoint, Caseonly; for OR (SNP x pravastatin treatment interaction): WOSCOPS pravastatin vs placebo", "source_text": "CARE was a secondary prevention trial and WOSCOPS was a primary prevention trial.\nThe CHD endpoint was defined in the analyses herein of CARE as a composite endpoint of fatal CHD, definite non-fatal MI, or revascularization, and was defined in the analyses herein of WOSCOPS as a composite endpoint of death from CHD, nonfatal MI, or revascularization. In both the CARE and WOSCOPS analyses herein, the CVD endpoint was defined as a composite endpoint of CHD or stroke. […] Revascularization, which can include percutaneous transluminal coronary angioplasty (PTCA), stent placement, and coronary artery bypass graft (CABG), are medical interventions that indicate the presence of CHD.\nCohort and case-only study designs were used to identify SNPs associated with response to statin treatment.\nFor each SNP, a logistic regression model having treatment status as the dependent variable and SNP as the independent predictor variable was performed, with terms for age, sex and race included in the model as covariates. The anti-log of the regression coefficient corresponding to the SNP is an estimate of the synergy index (SI) (Davis et al., “Imputing gene-treatment interactions when the genotype distribution is unknown using case-only and putative placebo analyses-a new method for the Genetics of Hypertension Associated Treatment (GenHAT) study”, Statistics in Medicine 23: (2004), pages 2413-2427). The SI is a ratio of odds ratios: for example in the CARE and WOSCOPS studies, the SI represents the factor by which the odds-ratio of statin treatment, compared with placebo, among major homozygous individuals is multiplied by in order to obtain the odds-ratio of treatment vs. placebo among heterozygous individuals; and multiplied by a second time to obtain the odds-ratio of treatment vs. placebo in minor homozygous individuals. […] In a randomized clinical trial, genotype and treatment are independent by design."}
{"smiles": "CC[C@H](C)C(=O)O[C@H]1C[C@H](O)C=C2C=C[C@H](C)[C@H](CC[C@@H](O)C[C@@H](O)CC(=O)O)[C@H]21", "note": "[Pravastatin, pravastatin]", "values": [{"measurement": "OR (synergy index), WOSCOPS, Prava vs Placebo", "setting": "SNP rs304601 (A1 A, A2 G), rec model", "value": 3.93}, {"measurement": "OR (synergy index), WOSCOPS, Prava vs Placebo", "setting": "SNP rs988146 (A1 G, A2 A), add model", "value": 0.80}, {"measurement": "OR (SNP x pravastatin treatment interaction)", "setting": "SNP rs1241967, allele A1=T, model REC, Imputed", "value": 0.5915}, {"measurement": "OR (SNP x pravastatin treatment interaction)", "setting": "SNP rs1247340, allele A1=C, model ADD, Imputed", "value": 1.51}, {"measurement": "OR (SNP x pravastatin treatment interaction)", "setting": "SNP rs1247340, allele A1=C, model DOM, Imputed", "value": 1.767}, {"measurement": "OR (SNP x pravastatin treatment interaction)", "setting": "SNP rs1247341, allele A1=C, model ADD, Imputed", "value": 1.524}, {"measurement": "OR (SNP x pravastatin treatment interaction)", "setting": "SNP rs1247341, allele A1=C, model DOM, Imputed", "value": 1.795}, {"measurement": "OR (SNP x pravastatin treatment interaction)", "setting": "SNP rs1247343, allele A1=C, model DOM, Imputed", "value": 1.681}, {"measurement": "OR (SNP x pravastatin treatment interaction)", "setting": "SNP rs1335721, allele A1=A, model REC, Imputed", "value": 0.5999}, {"measurement": "OR (SNP x pravastatin treatment interaction)", "setting": "SNP rs1336382, allele A1=T, model DOM, Imputed", "value": 1.458}, {"measurement": "OR (SNP x pravastatin treatment interaction)", "setting": "SNP rs1336383, allele A1=T, model DOM, Imputed", "value": 1.458}, {"measurement": "OR (SNP x pravastatin treatment interaction)", "setting": "SNP rs1336407, allele A1=T, model DOM, Imputed", "value": 1.458}, {"measurement": "OR (SNP x pravastatin treatment interaction)", "setting": "SNP rs1336409, allele A1=T, model DOM, Imputed", "value": 1.458}, {"measurement": "OR (SNP x pravastatin treatment interaction)", "setting": "SNP rs1336596, allele A1=A, model DOM, Imputed", "value": 0.6728}, {"measurement": "OR (SNP x pravastatin treatment interaction)", "setting": "SNP rs1355715, allele A1=T, model ADD, Imputed", "value": 0.5755}, {"measurement": "OR (SNP x pravastatin treatment interaction)", "setting": "SNP rs1363273, allele A1=C, model REC, Imputed", "value": 0.5817}, {"measurement": "OR (SNP x pravastatin treatment interaction)", "setting": "SNP rs1373601, allele A1=A, model DOM, Imputed", "value": 0.5287}, {"measurement": "OR (SNP x pravastatin treatment interaction)", "setting": "SNP rs1395748, allele A1=G, model DOM, Imputed", "value": 0.6603}, {"measurement": "OR (SNP x pravastatin treatment interaction)", "setting": "SNP rs1414865, allele A1=T, model DOM, Imputed", "value": 1.433}, {"measurement": "OR (SNP x pravastatin treatment interaction)", "setting": "SNP rs1414873, allele A1=A, model DOM, Imputed", "value": 1.458}, {"measurement": "OR (SNP x pravastatin treatment interaction)", "setting": "SNP rs1414876, allele A1=C, model DOM, Imputed", "value": 1.458}, {"measurement": "OR (SNP x pravastatin treatment interaction)", "setting": "SNP rs1424643, allele A1=G, model ADD, Imputed", "value": 1.554}, {"measurement": "OR (SNP x pravastatin treatment interaction)", "setting": "SNP rs1424643, allele A1=G, model DOM, Imputed", "value": 1.592}, {"measurement": "OR (SNP x pravastatin treatment interaction)", "setting": "SNP rs1424648, allele A1=T, model DOM, Imputed", "value": 1.619}, {"measurement": "OR (synergy index), WOSCOPS, Prava vs Placebo", "setting": "SNP rs1559557 (A1 G, A2 A), add model", "value": 1.53}, {"measurement": "OR (synergy index), WOSCOPS, Prava vs Placebo", "setting": "SNP rs1877527 (A1 G, A2 A), add model", "value": 0.77}, {"measurement": "OR (synergy index), WOSCOPS, Prava vs Placebo", "setting": "SNP rs2132241 (A1 A, A2 G), add model", "value": 0.70}, {"measurement": "OR (synergy index), WOSCOPS, Prava vs Placebo", "setting": "SNP rs2270588 (A1 G, A2 A), add model", "value": 0.75}, {"measurement": "OR (synergy index), WOSCOPS, Prava vs Placebo", "setting": "SNP rs9325191 (A1 A, A2 C), add model", "value": 0.69}, {"measurement": "OR (synergy index), WOSCOPS, Prava vs Placebo", "setting": "SNP rs9346951 (A1 A, A2 G), add model", "value": 1.25}, {"measurement": "OR (synergy index), WOSCOPS, Prava vs Placebo", "setting": "SNP rs10787944 (A1 G, A2 A), dom model", "value": 1.45}, {"measurement": "OR (SNP x pravastatin treatment interaction)", "setting": "SNP rs11959206, allele A1=A, model REC, Imputed", "value": 0.5862}, {"measurement": "OR (SNP x pravastatin treatment interaction)", "setting": "SNP rs12038613, allele A1=C, model REC, Imputed", "value": 0.5999}, {"measurement": "OR (SNP x pravastatin treatment interaction)", "setting": "SNP rs12151417, allele A1=T, model DOM, Imputed", "value": 1.573}, {"measurement": "OR (SNP x pravastatin treatment interaction)", "setting": "SNP rs12153185, allele A1=T, model DOM, Imputed", "value": 0.6973}, {"measurement": "OR (SNP x pravastatin treatment interaction)", "setting": "SNP rs12182651, allele A1=T, model DOM, Imputed", "value": 2.24}, {"measurement": "OR (SNP x pravastatin treatment interaction)", "setting": "SNP rs12235345, allele A1=C, model DOM, Imputed", "value": 1.42}, {"measurement": "OR (SNP x pravastatin treatment interaction)", "setting": "SNP rs12324786, allele A1=T, model REC, Imputed", "value": 2.796}, {"measurement": "OR (SNP x pravastatin treatment interaction)", "setting": "SNP rs12336958, allele A1=G, model DOM, Imputed", "value": 1.46}, {"measurement": "OR (SNP x pravastatin treatment interaction)", "setting": "SNP rs12407412, allele A1=C, model ADD, Imputed", "value": 1.382}, {"measurement": "OR (SNP x pravastatin treatment interaction)", "setting": "SNP rs12407412, allele A1=C, model DOM, Imputed", "value": 1.401}, {"measurement": "OR (SNP x pravastatin treatment interaction)", "setting": "SNP rs12418971, allele A1=C, model REC, Imputed", "value": 1.699}, {"measurement": "OR (SNP x pravastatin treatment interaction)", "setting": "SNP rs12420184, allele A1=G, model DOM, Imputed", "value": 0.6518}, {"measurement": "OR (SNP x pravastatin treatment interaction)", "setting": "SNP rs12433968, allele A1=T, model DOM, Imputed", "value": 0.7213}, {"measurement": "OR (SNP x pravastatin treatment interaction)", "setting": "SNP rs12445477, allele A1=A, model DOM, Imputed", "value": 0.4063}, {"measurement": "OR (SNP x pravastatin treatment interaction)", "setting": "SNP rs12447191, allele A1=T, model ADD, Genotyped", "value": 0.6489}, {"measurement": "OR (SNP x pravastatin treatment interaction)", "setting": "SNP rs12447191, allele A1=T, model DOM, Genotyped", "value": 0.5081}, {"measurement": "OR (SNP x pravastatin treatment interaction)", "setting": "SNP rs12465349, allele A1=A, model REC, Imputed", "value": 1.587}, {"measurement": "OR (SNP x pravastatin treatment interaction)", "setting": "SNP rs12509758, allele A1=C, model DOM, Imputed", "value": 1.856}, {"measurement": "OR (SNP x pravastatin treatment interaction)", "setting": "SNP rs12515472, allele A1=A, model DOM, Imputed", "value": 1.531}, {"measurement": "OR (SNP x pravastatin treatment interaction)", "setting": "SNP rs12548906, allele A1=G, model ADD, Imputed", "value": 1.496}, {"measurement": "OR (SNP x pravastatin treatment interaction)", "setting": "SNP rs12596240, allele A1=G, model DOM, Imputed", "value": 0.6708}, {"measurement": "OR (SNP x pravastatin treatment interaction)", "setting": "SNP rs12618781, allele A1=A, model DOM, Imputed", "value": 0.5446}, {"measurement": "OR (SNP x pravastatin treatment interaction)", "setting": "SNP rs12678600, allele A1=A, model DOM, Imputed", "value": 0.6479}, {"measurement": "OR (SNP x pravastatin treatment interaction)", "setting": "SNP rs12692229, allele A1=T, model ADD, Imputed", "value": 1.315}, {"measurement": "OR (SNP x pravastatin treatment interaction)", "setting": "SNP rs12713324, allele A1=T, model DOM, Imputed", "value": 1.584}, {"measurement": "OR (SNP x pravastatin treatment interaction)", "setting": "SNP rs12719415, allele A1=T, model DOM, Imputed", "value": 0.6887}, {"measurement": "OR (SNP x pravastatin treatment interaction)", "setting": "SNP rs12820589, allele A1=G, model ADD, Imputed", "value": 1.758}]}
